This is an account of results in US20240059694A1, “COMPOUND CONTAINING 1,3-BENZODIOXOL STRUCTURE AND PREPARATION METHOD AND USE THEREOF” (priority 2021, published 2024).

Experiment [1] concerns the target BTK (Homo sapiens (Human), UniProt Q06187). Kind of experiment: BTK kinase inhibitory activity experiment (Caliper EZ reader conversion rate). Type of experiment: biochemical. The conditions noted are these: for IC50: in vitro kinase assay, 20 min incubation, class key in μM; for inhibitory activity on BTK (in words): summary of Table 1. Here is the method: (§1) Experimental method: The 384-well plate was divided into compound wells (starting at 10 μM, diluted three times to produce 10 concentrations), positive control wells and negative control wells; kinase solution was added to compound wells and positive control wells, and 1×kinase buffer was added to negative control wells; the solution is next centrifuged for 30 seconds and incubated at room temperature for 10 min. Add 15 μL of the mixed solution of ATP and substrate, shake and mix well after centrifugation and incubate at room temperature (30 min for JAK3, 20 min for BTK). Add stop detection solution to stop the reaction, and read the conversion rate with Caliper EZ reader, Data analysis: The formula is as follows: […]
(§2) where Conversion %_sample is the conversion rate reading of the sample Conversion %_min is the average value of the negative control wells representing the conversion rate reading of the wells without enzyme addition; and Conversion %_max is the average value of the positive control wells representing the conversion rate reading of the wells without adding the compound. Fit the dose-response curve: Taking the log value of the concentration as the X-axis, and the percentage inhibition rate as the Y-axis, the dose-response curve was fitted using the log (inhibitor) vs. response-Variable slope of the software GraphPad Prism 5, so as to obtain the IC50 value of each compound on the enzyme activity.

Experiment [2] concerns the target JAK3 (Homo sapiens (Human), UniProt P52333). Put plainly: JAK3 kinase inhibitory activity experiment (Caliper EZ reader conversion rate). It is filed as biochemical. The following applies: for IC50: in vitro kinase assay, 30 min incubation, class key in μM; for inhibitory activity on JAK3 (in words): summary of Table 1. Here is the method:
as §1, §2

The test system of experiment [3] is BaF3-TEL-JAK3 cells. Put plainly: Proliferation inhibition of BaF3-TEL-JAK3 cells (Cell Titer-Glo, 72 h). Type of experiment: cell-based. The conditions noted are these: 72 h drug action, class key in μM. Here is the method:
(§3) Experimental procedure: A certain number of cells in the logarithmic growth phase were inoculated in a 96-well plate and cultured at 37° C. before adding drugs. After 72 h of drug action, after the 96-well cell plate was equilibrated to room temperature, 40 μL of Cell Titer-Glo® reagent was added to each well; each plate was then shaken for 2 min and allowed to stand for 10 min, the chemiluminescent signal was detected with an MD SpectraMax Paradigm microplate reader. Data analysis: The formula is as follows: […]
(§4) Max signal: DMSO signal; Min signal: medium signal, IC50 was calculated using GraphPad Prism 5.
In general terms: In ATP-based viability assays light output follows the ATP content of the culture.

In experiment [4] the test system is Daudi cells. Kind of experiment: Proliferation inhibition of Daudi cells (Cell Titer-Glo, 72 h). It is filed as cell-based. The following applies: 72 h drug action, class key in μM. Here is the method:
as §3, §4

Sequence of JAK3 (P52333 whole entry): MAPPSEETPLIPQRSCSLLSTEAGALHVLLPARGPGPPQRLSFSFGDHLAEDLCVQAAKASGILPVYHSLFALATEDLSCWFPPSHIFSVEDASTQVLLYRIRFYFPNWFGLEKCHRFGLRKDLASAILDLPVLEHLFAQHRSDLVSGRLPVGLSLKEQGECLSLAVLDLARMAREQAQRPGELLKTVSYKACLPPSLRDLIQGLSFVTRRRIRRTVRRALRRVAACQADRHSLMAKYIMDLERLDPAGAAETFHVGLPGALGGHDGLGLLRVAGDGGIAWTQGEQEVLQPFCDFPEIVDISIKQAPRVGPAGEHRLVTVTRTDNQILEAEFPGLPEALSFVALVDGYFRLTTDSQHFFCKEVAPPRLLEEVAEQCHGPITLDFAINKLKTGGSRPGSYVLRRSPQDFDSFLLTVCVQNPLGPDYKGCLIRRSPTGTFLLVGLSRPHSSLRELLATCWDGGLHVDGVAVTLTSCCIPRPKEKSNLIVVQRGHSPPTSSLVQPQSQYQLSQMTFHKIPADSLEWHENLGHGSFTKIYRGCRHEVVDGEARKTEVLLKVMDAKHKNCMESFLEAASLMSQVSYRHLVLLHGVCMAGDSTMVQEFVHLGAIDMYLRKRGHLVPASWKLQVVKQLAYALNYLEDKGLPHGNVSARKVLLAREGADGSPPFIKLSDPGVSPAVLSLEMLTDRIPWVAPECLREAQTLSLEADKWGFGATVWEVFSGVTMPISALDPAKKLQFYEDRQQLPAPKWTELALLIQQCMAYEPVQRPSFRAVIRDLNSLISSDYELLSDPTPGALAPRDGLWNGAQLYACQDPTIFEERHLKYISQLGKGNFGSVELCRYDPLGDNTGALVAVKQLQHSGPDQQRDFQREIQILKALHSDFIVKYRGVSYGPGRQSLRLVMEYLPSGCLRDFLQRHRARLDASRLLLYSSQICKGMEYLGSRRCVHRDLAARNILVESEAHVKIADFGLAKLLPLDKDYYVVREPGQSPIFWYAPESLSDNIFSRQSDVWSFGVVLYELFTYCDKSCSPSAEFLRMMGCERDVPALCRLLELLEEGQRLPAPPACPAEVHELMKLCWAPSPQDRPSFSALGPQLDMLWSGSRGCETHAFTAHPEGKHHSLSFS
Sequence of BTK (Q06187 whole entry): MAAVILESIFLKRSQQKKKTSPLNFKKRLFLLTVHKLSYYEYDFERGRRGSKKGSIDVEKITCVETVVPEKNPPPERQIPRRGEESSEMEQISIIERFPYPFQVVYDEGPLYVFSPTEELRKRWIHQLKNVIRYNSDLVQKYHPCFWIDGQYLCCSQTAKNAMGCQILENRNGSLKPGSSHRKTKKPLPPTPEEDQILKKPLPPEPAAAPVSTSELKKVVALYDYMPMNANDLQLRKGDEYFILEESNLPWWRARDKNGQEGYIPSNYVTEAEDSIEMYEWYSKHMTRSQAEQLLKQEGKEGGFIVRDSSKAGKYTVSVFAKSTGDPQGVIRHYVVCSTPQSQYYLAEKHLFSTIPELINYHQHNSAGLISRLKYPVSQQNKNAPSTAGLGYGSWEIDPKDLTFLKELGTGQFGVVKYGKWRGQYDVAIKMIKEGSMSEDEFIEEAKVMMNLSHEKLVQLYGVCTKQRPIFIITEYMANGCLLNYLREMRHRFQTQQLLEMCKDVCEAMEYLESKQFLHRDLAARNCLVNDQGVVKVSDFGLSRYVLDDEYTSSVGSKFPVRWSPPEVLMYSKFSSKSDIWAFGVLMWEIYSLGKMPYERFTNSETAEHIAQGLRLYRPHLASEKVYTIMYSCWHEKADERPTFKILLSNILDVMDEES

What is called IC50 is the concentration that gives 50% inhibition. Take `C=CC(=O)N1CCC[C@@H](n2nc(-c3ccc(NC(=O)c4cccc(Cl)c4)c4c3OCO4)c3c(N)ncnc32)C1` [I-6, (R)-N-(7-(1-(1-acryloylpiperidin-3)-4-amino-1H-pyrazolo[3,4-d]pyrimidin-3-)benzo[d][1,3]dioxoheterocyclopenten-4)-3-chlorobenzamide]: the IC50 lay within 0.001 to 0.05 µM in experiment [1], 0.001 to 0.05 µM in experiment [2], 0.5 to 1 µM in experiment [3] and 0.5 to 1 µM in experiment [4]. In addition, the “inhibitory activity on BTK (in words)” value in experiment [1] is reported as “excellent inhibitory activity”. In addition, the “inhibitory activity on JAK3 (in words)” value in experiment [2] is recorded as “excellent inhibitory activity”.
As to `C=CC(=O)N1CCC[C@@H](n2nc(-c3ccc(NC(=O)c4sc5ccccc5c4Cl)c4c3OCO4)c3c(N)ncnc32)C1` [I-16, (R)-N-(7-(1-(1-acryloylpiperidin-3)-4-amino-1H-pyrazolo[3,4-d]pyrimidin-3-yl)benzo[d][1,3]dioxoheterocyclopenten-4-)-3-chlorobenzo[b]thiophene-2-formamide], the IC50 in experiment [1] lay in the range of 0.001 to 0.05 µM; in experiment [2], 0.001 to 0.05 µM; in experiment [3], 0.01 to 0.5 µM; in experiment [4], 0.01 to 0.5 µM.
Consider `C=CC(=O)N1CCC[C@@H](n2nc(-c3ccc(NC(=O)c4ccc(C(C)(C)C)cc4)c4c3OCO4)c3c(N)ncnc32)C1` [I-11, (R)-N-(7-(1-(1-acryloylpiperidin-3)-4-amino-1H-pyrazolo[3,4-d]pyrimidin-3-)benzo[d][1,3]dioxoheterocyclopenten-4)-4-tert-butylbenzamide], for which the IC50 in experiment [1] was in the range of 0.001 to 0.05 µM; in experiment [2], 0.001 to 0.05 µM; in experiment [3], 0.01 to 0.5 µM; in experiment [4] it was 0.01 to 0.5 µM. Also, the “inhibitory activity on BTK (in words)” value in experiment [1] was “excellent inhibitory activity”. The “inhibitory activity on JAK3 (in words)” value in experiment [2] is given as “excellent inhibitory activity”.
Turning to `C=CC(=O)N1CCC[C@@H](n2nc(-c3ccc(NC(=O)c4cccc5ccccc45)c4c3OCO4)c3c(N)ncnc32)C1` [I-17, (R)-N-(7-(1-(1-acryloylpiperidin-3-yl)-4-amino-1H-pyrazolo[3,4-d]pyrimidin-3-)benzo[d][1,3]dioxoheterocyclopenten-4-)-1-naphthalenecarboxamide], the IC50 in experiment [1] lay within 0.001 to 0.05 µM; in experiment [2], 0.001 to 0.05 µM; in experiment [3] it was 0.5 to 1 µM; in experiment [4], 0.5 to 1 µM.
Turning to `C=CC(=O)N1CCC[C@@H](n2nc(-c3ccc(NC(=O)c4ccc(N(CC)CC)cc4)c4c3OCO4)c3c(N)ncnc32)C1` [I-15, (R)-N-(7-(1-(1-acryloylpiperidin-3)-4-amino-1H-pyrazolo[3,4-d]pyrimidin-3-)benzo[d][1,3]dioxoheterocyclopenten-4)-4-(diethylamino)benzamide], the IC50 was in the range of 0.001 to 0.05 µM in experiment [1], 0.001 to 0.05 µM in experiment [2], 0.01 to 0.5 µM in experiment [3] and 0.5 to 1 µM in experiment [4].
Regarding `C=CC(=O)N1CCC[C@@H](n2nc(-c3ccc(NC(=O)c4ccc[nH]4)c4c3OCO4)c3c(N)ncnc32)C1` [I-3, (R)-N-(7-(1-(1-acryloylpiperidin-3-yl)-4-amino-1H-pyrazolo[3,4d]pyrimidin-3-)benzo[d][1,3]dioxoheterocyclopenten-4)-1H-pyrrole-2-formamide], the IC50 lay within 0.001 to 0.05 µM in experiment [1], 0.05 to 0.5 µM in experiment [2], 0.5 to 1 µM in experiment [3] and 0.5 to 1 µM in experiment [4].
`C=CC(=O)N1CCC[C@@H](n2nc(-c3ccc(NC(=O)c4ccc(Cl)cc4)c4c3OCO4)c3c(N)ncnc32)C1` [I-7, (R)-N-(7-(1-(1-acryloylpiperidin-3)-4-amino-1H-pyrazolo[3,4d]pyrimidin-3-)benzo[d][1,3]dioxoheterocyclopenten-4)-4-chlorobenzamide]: the IC50 in experiment [1] was 0.001 to 0.05 µM; in experiment [2], 0.001 to 0.05 µM; in experiment [3], 0.5 to 1 µM; in experiment [4], 0.5 to 1 µM. In experiment [1], the “inhibitory activity on BTK (in words)” value is given as “excellent inhibitory activity”. Further, the “inhibitory activity on JAK3 (in words)” value in experiment [2] is on record as “excellent inhibitory activity”.
As for `C=CC(=O)N1CCC[C@@H](n2nc(-c3ccc(NC(=O)c4cccc5c4CCCC5)c4c3OCO4)c3c(N)ncnc32)C1` [I-20, (R)-N-(7-(1-(1-acryloylpiperidin-3-yl)-4-amino-1H-pyrazolo[3,4-d]pyrimidin-3-)benzo[d][1,3]dioxoheterocyclopenten-4-)-5,6,7,8-tetrahydronaphthalene-1-carboxamide], the IC50 in experiment [1] was 0.001 to 0.05 µM; in experiment [2], 0.001 to 0.05 µM; in experiment [3] it was 0.5 to 1 µM; in experiment [4], 0.5 to 1 µM.
In the case of `C=CC(=O)N1CCC[C@@H](n2nc(-c3ccc(NC(=O)c4ccc(-c5ccccc5)cc4)c4c3OCO4)c3c(N)ncnc32)C1` [I-24, (R)-N-(7-(1-(1-acryloylpiperidin-3-yl)-4-amino-1H-pyrazolo[3,4-d]pyrimidin-3-)benzo[d][1,3]dioxoheterocyclopenten-4)-[1,1′-Biphenyl]-4-carboxamide], the IC50 in experiment [1] lay in the range of 0.001 to 0.05 µM; in experiment [2], 0.05 to 0.5 µM; in experiment [3], 0.01 to 0.5 µM; in experiment [4], 0.01 to 0.5 µM.
Turning to `C=CC(=O)N1CCC[C@@H](n2nc(-c3ccc(NC(=O)c4cccs4)c4c3OCO4)c3c(N)ncnc32)C1` [I-2, (R)-N-(7-(1-(1-acryloylpiperidin-3)-4-amino-1H-pyrazolo[3,4-d]pyrimidin-3-yl)benzo[d][1,3]dioxoheterocyclopenten-4-)thiophene-2-formamide], the IC50 in experiment [1] lay within 0.001 to 0.05 µM; in experiment [2], 0.05 to 0.5 µM; in experiment [3], 0.5 to 1 µM; in experiment [4], 0.5 to 1 µM.
With `C=CC(=O)N1CCC[C@@H](n2nc(-c3ccc(NC(=O)c4ccc5ccccc5c4)c4c3OCO4)c3c(N)ncnc32)C1` [I-18, (R)-N-(7-(1-(1-acryloylpiperidin-3)-4-amino-1H-pyrazolo[3,4-d]pyrimidin-3-)benzo[d][1,3]dioxoheterocyclopenten-4)-2-naphthalenecarboxamide], the half-inhibitory concentration (IC50) in experiment [1] fell in the range of 0.001 to 0.05 µM; in experiment [2], 0.001 to 0.05 µM; in experiment [3], 0.5 to 1 µM; in experiment [4] it was 0.5 to 1 µM.
